Measurements published in PubChem BioAssay AID2060907 (Molecular Pharmacology Branch, DTP, NCI, 2025).
Values joined by “and” are separate entries in the source; they are usually repeats but may differ in a detail not shown here. Equal values may be shown once.

Test system: 388556-164-R-J1-PDC complex spheroid viability
Assay: Anticancer human tumor 388556-164-R-J1-PDC patient-derived colon adenocarcinoma cell line growth inhibition [RAS]
Settings: for viability, T/C: stronger effect = lower value
Method in brief: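 Agents were tested in combination matrices in half-log decrements from a top concentration at or near clinical Cmax (10 microM if undetermined). Targets were multi-cell spheroids of tumour lines plus HUVEC and MSC stromal cells.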
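Also: spheroids exposed to compound for 7 days before readout.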
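For viability, T/C in this document: 100% = DMSO vehicle control luminescence.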

`NC1c2ccccc2OC12CCN(c1cnc3c(N4CCCc5ncccc54)n[nH]c3n1)CC2` (stereo not drawn) + CCn1c(-c2cccnc2C(C)OC)c2c3cc(ccc31)N1CCOC(CC(NC(=O)C(C(C)C)N(C)C(=O)C3(F)CCN(C(=O)C#CC(C)(C)N(C)C)CC3)C(=O)N3CCCC(N3)C(=O)OCC(C)(C)C2)C1 showed an IC50 (curve of first compound, second compound 0.000949 µM) of 192 nM, an IC50 (curve of first compound, second compound 0.003 µM) of 220 nM and an IC50 (curve of first compound, second compound 0.00949 µM) of 239 nM. The IC50 (curve of first compound, second compound 0.03 µM) was 129 nM, the IC50 (curve of first compound, second compound 0.0949 µM) was 180 nM and the IC50 (curve of first compound, second compound 0.3 µM) was 100 nM. The viability, T/C (second compound 0.000949 µM, first compound 0.0316 µM) was 63.8%, the viability, T/C (second compound 0.000949 µM, first compound 0.1 µM) was 54.9% and the viability, T/C (second compound 0.000949 µM, first compound 0.316 µM) was 46%. The viability, T/C (second compound 0.000949 µM, first compound 1 µM) was 40.4%, the viability, T/C (second compound 0.000949 µM, first compound 3.16 µM) was 44% and the viability, T/C (second compound 0.000949 µM, first compound 10 µM) was 35.3%. The viability, T/C (second compound 0.003 µM, first compound 0.0316 µM) was 70.6%, the viability, T/C (second compound 0.003 µM, first compound 0.1 µM) was 56.3% and the viability, T/C (second compound 0.003 µM, first compound 0.316 µM) was 49.1%. It also gave a viability, T/C (second compound 0.003 µM, first compound 1 µM) of 37.1%, a viability, T/C (second compound 0.003 µM, first compound 3.16 µM) of 36.2% and a viability, T/C (second compound 0.003 µM, first compound 10 µM) of 33%. The viability, T/C (second compound 0.00949 µM, first compound 0.0316 µM) was 77.8%, the viability, T/C (second compound 0.00949 µM, first compound 0.1 µM) was 57.9% and the viability, T/C (second compound 0.00949 µM, first compound 0.316 µM) was 47.1%. For the same molecule, the viability, T/C (second compound 0.00949 µM, first compound 1 µM) was 41.5%, the viability, T/C (second compound 0.00949 µM, first compound 3.16 µM) was 42% and the viability, T/C (second compound 0.00949 µM, first compound 10 µM) was 35.9%. The viability, T/C (second compound 0.03 µM, first compound 0.0316 µM) was 73.1%, the viability, T/C (second compound 0.03 µM, first compound 0.1 µM) was 50.4% and the viability, T/C (second compound 0.03 µM, first compound 0.316 µM) was 44.6%. It also gave a viability, T/C (second compound 0.03 µM, first compound 1 µM) of 38.5%, a viability, T/C (second compound 0.03 µM, first compound 3.16 µM) of 37.2% and a viability, T/C (second compound 0.03 µM, first compound 10 µM) of 35.4%. The viability, T/C (second compound 0.0949 µM, first compound 0.0316 µM) was 66.8%, the viability, T/C (second compound 0.0949 µM, first compound 0.1 µM) was 56.3% and the viability, T/C (second compound 0.0949 µM, first compound 0.316 µM) was 43.5%. The viability, T/C (second compound 0.0949 µM, first compound 1 µM) was 38.1%, the viability, T/C (second compound 0.0949 µM, first compound 3.16 µM) was 36.4% and the viability, T/C (second compound 0.0949 µM, first compound 10 µM) was 31.8%. It also gave a viability, T/C (second compound 0.3 µM, first compound 0.0316 µM) of 59.7%, a viability, T/C (second compound 0.3 µM, first compound 0.1 µM) of 49.6% and a viability, T/C (second compound 0.3 µM, first compound 0.316 µM) of 42.8%. The viability, T/C (second compound 0.3 µM, first compound 1 µM) was 35.1%, the viability, T/C (second compound 0.3 µM, first compound 3.16 µM) was 30.6% and the viability, T/C (second compound 0.3 µM, first compound 10 µM) was 27.6%.

For `C=CC(=O)Nc1cc(Nc2nccc(-c3cn(C)c4ccccc34)n2)c(OC)cc1N(C)CCN(C)C`, the viability, T/C (compound 0.01 µM) was 103% (2×) and 87.1% and 86.9%, the viability, T/C (compound 0.0316 µM) was 98.9% [middle of 4 runs] and the viability, T/C (compound 0.1 µM) was 88.7% [middle of 4 runs]. For the same molecule, the viability, T/C (compound 0.316 µM) was 78.6% [middle of 4 runs], the viability, T/C (compound 1 µM) was 64.3% [middle of 4 runs] and the IC50 (curve of compound) was over 1000 nM.
